In assay [1] the test system is aged rats. Kind of assay: Morris water maze learning test in aged rats. It is filed as in vivo. As to conditions: repeated oral administration, vildagliptin 3 mg/kg and/or donepezil 0.3 mg/kg, test started on day 20 of treatment, versus control group.
Description: (§1) The ameliorative effect of vildagliptin or the combined use of vildagliptin with the compounds having cholinesterase inhibitory activity on learning deficits is investigated in aged rats.
(§2) Methods Male (3 to 27 months old) rats of transgenic strain are used. The aged rats are divided into the following four groups (the active ingredient dosage can be adapted by the person skilled in the art).
(§3) 1) Control group: Repeated administration of placebo pill.
(§4) 2) Vildagliptin group: Repeated oral administration of vildagliptin 3 mg/kg.
(§5) Passive avoidance learning test is started on day 14 of treatment, and Morris water maze learning test on day 20 of treatment.
(§6) On each day of experiment, vildagliptin arid/or a cholinesterase inhibitor are administered 30 minutes and 1 hour, respectively, before initiation of the trial.
Morris Water Maze Learning Same animals used in the passive avoidance test are subjected for the water maze task. However, some rats can not swim well in the water tank, thus they are excluded in the water maze task.
In pretraining which is performed for swimming training and motivation for escaping from water, four trials are performed using a water bath, 80 cm in diameter, in a condition that the platform is visible. […]
Assay [2] concerns aged rats. In words: Passive avoidance learning test in aged rats. It counts as in vivo. The note with it: repeated oral administration, vildagliptin 3 mg/kg and/or donepezil 0.3 mg/kg, test started on day 14 of treatment, versus control group.
Description: as §1, §2, §3, §4, §5, §6
Passive Avoidance Learning: The passive avoidance learning test is performed using a chamber consisting of light and dark compartments. […] After a mouse moves to the dark compartment, the mouse is kept there for about 10 seconds with the door closed. One to two hours after the habituation trial, acquisition trial is performed. […]
In each trial, the latency from opening of the slide door until the animal moved to the dark compartment (step-through latency) is measured.

As for `N#C[C@@H]1CCCN1C(=O)CNC12CC3CC(CC(O)(C3)C1)C2` [vildagliptin, (S)-1-[(3-hydroxy-1-adamantyl)amino]acetyl-2-cyano-pyrrolidine], in assay [1], the “water maze learning deficit (latency to find platform submerged in the water)” value is on record as “significant improvement in water maze learning deficit”. For the same molecule, the “learning deficit in passive avoidance learning (step-through latency / avoidance time)” value in assay [2] is “significant improvement of the learning deficit”.

The values are drawn from patent US20100160408A1, “VILDAGLIPTIN FOR TREATING GENERAL PERIPHERAL NEUROPATHIES” (priority 2004, published 2010).
